Experimental data taken from US10570150B2, “6,7-trans cephalosporin-based probes for detecting bacteria expressing a metallo-beta-lactamase” (priority 2014, dated 2020).
Marks after values point to notes of the source that are not given here.

How the values were obtained:
[1] = system: VIM-27; assay: Kinetic parameters of probes with recombinant VIM-27 (Lineweaver-Burk plots); details: from Lineweaver-Burk plots
[2] = molecular target: T1, IMP-1 (Serratia marcescens, UniProt P52699); details: from Lineweaver-Burk plots
[3] = molecular target: BlaC (Mycobacterium tuberculosis, UniProt P9WKD3); assay: Fluorescence of probes after incubation with recombinant BlaC; assay type: biochemical; details: BlaC 1 to 200 fmols; probe 10 μM, 25 μL 1×PBS pH 7.4, room temperature, 2 h
Protocol: (§1) The fluorescence of the probes was measured before and after enzyme treatment using enzyme concentrations in the range of about 1 to about 200 fmols. […] CDC-1, a previously reported non-specific probe for β-lactamases employed as a positive control, as described by Xie et al., (2012) J. Nat.

[4] = molecular target: T1, IMP-1; assay type: biochemical, Escherichia coli; details: probe 10 μM, 2 h; for fluorescence enhancement: IMP-1 1 to 200 fmols, 25 μL 1×PBS pH 7.4, room temperature
[5] = molecular target: T2, NDM-1 (Klebsiella pneumoniae, UniProt C7C422); assay type: biochemical, Escherichia coli; details: probe 10 μM, 2 h; for fluorescence enhancement: NDM-1 1 to 200 fmols, 25 μL 1×PBS pH 7.4, room temperature; for amount of enzyme giving detectable fluorescence: NDM-1
[6] = system: VIM-27; assay: Fluorescence of probes after incubation with recombinant VIM-27; assay type: biochemical, Klebsiella pneumoniae; details: probe 10 μM, 2 h; for fluorescence enhancement: VIM-27 1 to 200 fmols, 25 μL 1×PBS pH 7.4, room temperature
Protocol: as §1

[7] = molecular target: T3, KPC-3 (Klebsiella pneumoniae, UniProt Q9F663, H272Y); assay type: biochemical; details: probe 10 μM, 2 h; for fluorescence enhancement: KPC-3 1 to 200 fmols, 25 μL 1×PBS pH 7.4, room temperature; for amount of enzyme giving detectable fluorescence: KPC-3
[8] = molecular target: T3, KPC-3; details: from Lineweaver-Burk plots
[9] = molecular target: TEM-1 Bla (Escherichia coli, UniProt P62593); assay type: biochemical; details: TEM-1 Bla 1 to 200 fmols; probe 10 μM, 25 μL 1×PBS pH 7.4, room temperature, 2 h
[10] = Spontaneous hydrolysis of probe in PBS buffer; assay type: physicochemical; details: [S]0=20 μM
Text: FIGS. 14A-14G illustrate the spontaneous hydrolysis in buffer of a probe according to the disclosure. FIG. 14A is a schema illustrating the spontaneous hydrolysis of a probe of the disclosure in PBS buffer to release umbelliferone and thereby generate a fluorescent signal. […] Initial concentration of probe, [P]: […] Error bars indicate the standard deviations of three replicate experiments.

[11] = molecular target: T2, NDM-1; details: from Lineweaver-Burk plots
[12] = system: [H][C@]1(OC(C)C)C(=O)N2C(C(=O)O)=C(COc3ccc4ccc(=O)oc4c3)CS[C@@]21[H]; assay: purified protein, by the assay type; details: from Lineweaver-Burk plots
[13] = system: [H][C@]1(OCc2ccccc2)C(=O)N2C(C(=O)O)=C(COc3ccc4ccc(=O)oc4c3)CS[C@@]21[H]; assay: purified protein, by the assay type; details: from Lineweaver-Burk plots
[14] = system: [H][C@]1(OCC)C(=O)N2C(C(=O)O)=C(COc3ccc4ccc(=O)oc4c3)CS[C@@]21[H]; assay: purified protein, by the assay type; details: from Lineweaver-Burk plots
[15] = system: [H][C@]1(OC(C)(C)C)C(=O)N2C(C(=O)O)=C(COc3ccc4ccc(=O)oc4c3)CS[C@@]21[H]; assay: purified protein, by the assay type; details: from Lineweaver-Burk plots
[16] = system: [H][C@]1(OS(=O)(=O)c2ccc(C)cc2)C(=O)N2C(C(=O)O)=C(COc3ccc4ccc(=O)oc4c3)CS[C@@]21[H]; assay: purified protein, by the assay type; details: from Lineweaver-Burk plots
[17] = system: [H][C@]1(OC)C(=O)N2C(C(=O)O)=C(COc3ccc4ccc(=O)oc4c3)CS[C@@]21[H]; assay: purified protein, by the assay type; details: from Lineweaver-Burk plots
[18] = system: non-carbapenemase lactamases; assay: Hydrolysis of probes by non-carbapenemase lactamases
[19] = system: E. coli with IMP-1; details: IMP-1-expressing bacteria; 2 h incubation

O=C(Cc1ccccc1)N[C@@H]1C(=O)N2C(C(=O)O)=C(COc3ccc4ccc(=O)oc4c3)CS[C@H]12 [CDC-1, reference compound]
Km [1]: 3.8 ± 2.7 µM
kcat [1]: 2.3 ± 0.3 s⁻¹
Km [2]: 4 ± 0.1 µM
kcat [2]: 7.9 ± 0.1 s⁻¹
fluorescence enhancement [3]: positive fluorescence enhancement
fluorescence enhancement [4]: positive fluorescence enhancement
fluorescence enhancement [5]: positive fluorescence enhancement
fluorescence enhancement [6]: positive fluorescence enhancement
fluorescence enhancement [7]: positive fluorescence enhancement
Km [8]: 21 ± 1.34 µM
kcat [8]: 35.4 ± 0.04 s⁻¹
fluorescence enhancement [9]: positive fluorescence enhancement
Spontaneous hydrolysis rate [10]: 2.4^b ×10^−7s^−1
Km [11]: 5.04 ± 3.2 µM
kcat [11]: 4.6 ± 0.3 s⁻¹

NDM-1 (Klebsiella pneumoniae)
Km ([12]; other: NDM-1): 6.0 ± 3.5 µM
kcat ([12]; other: NDM-1): 0.1 ± 0.01 s⁻¹
kcat/Km ([12]; other: NDM-1): 2.0 × 10^4 s^−1M^−1
Km ([13]; other: NDM-1): 26.7 ± 0.2 µM
kcat ([13]; other: NDM-1): 0.3 ± 0.0 s⁻¹
kcat/Km ([13]; other: NDM-1): 1.0 × 10^4 s^−1M^−1
Km ([14]; other: NDM-1): 14.9 ± 2.7 µM
kcat ([14]; other: NDM-1): 0.3 ± 0.01 s⁻¹
kcat/Km ([14]; other: NDM-1): 1.7 × 10^4 s^−1M^−1
Km ([15]; other: NDM-1): 58.6 ± 16.0 µM
kcat ([15]; other: NDM-1): 0.3 ± 0.04 s⁻¹
kcat/Km ([15]; other: NDM-1): 5.1 × 10^3 s^−1M^−1
Km ([16]; other: NDM-1): 4.7 ± 0.3 µM
kcat ([16]; other: NDM-1): 1.9 ± 0.06 s⁻¹
kcat/Km ([16]; other: NDM-1): 4.0 × 10^5 s^−1M^−1
Km ([17]; other: NDM-1): 12.0 ± 0.7 µM
kcat ([17]; other: NDM-1): 0.2 ± 0.02 s⁻¹
kcat/Km ([17]; other: NDM-1): 2.0 × 10^4 s^−1M^−1

CC(C)O[C@H]1C(=O)N2C(C(=O)O)=C(COc3ccc4ccc(=O)oc4c3)CS[C@H]12 [(s)-CC-3, (6R,7S)-7-isopropoxy-8-oxo-3-(((2-oxo-2H-chromen-7-yl)oxy)methyl)-5-thia-1-azabicyclo[4.2.0]oct-2-ene-2-carboxylic Acid]
Km [1]: 61.3 ± 8.8 µM
kcat [1]: 0.5 ± 0.04 s⁻¹
fluorescence enhancement [4]: fluorescence enhancement
fluorescence enhancement [5]: fluorescence enhancement
fluorescence enhancement [6]: fluorescence enhancement
amount of enzyme giving detectable fluorescence [7]: 200 fmol
Km [8]: 250 ± 235 µM
kcat [8]: 0.2 ± 0.17 s⁻¹
Spontaneous hydrolysis rate [10]: 4.8e-07 s⁻¹

O=C(O)C1=C(COc2ccc3ccc(=O)oc3c2)CS[C@@H]2[C@@H](OCc3ccccc3)C(=O)N12 [(s)-CC-5, (6R,7S)-7-(benzyloxy)-8-oxo-3-(((2-oxo-2H-chromen-7-yl)oxy)methyl)-5-thia-1-azabicyclo[4.2.0]oct-2-ene-2-carboxylic Acid]
Km [1]: 145 ± 100 µM
kcat [1]: 3.4 ± 1.5 s⁻¹
hydrolysis by non-carbapenemase lactamases [18]: no hydrolysis
fluorescence enhancement [3]: almost no fluorescence enhancement
fluorescence enhancement [4]: high fluorescence signals
fluorescence enhancement [5]: high fluorescence signals
fluorescence enhancement [6]: high fluorescence signals
fluorescence enhancement [7]: high fluorescence signals
Km [8]: 5.2 ± 0.5 µM
kcat [8]: 1.1 ± 0.01 s⁻¹
fluorescence enhancement [9]: almost no fluorescence enhancement
Spontaneous hydrolysis rate [10]: 2.7e-07 s⁻¹

CCO[C@H]1C(=O)N2C(C(=O)O)=C(COc3ccc4ccc(=O)oc4c3)CS[C@H]12 [(s)-CC-2, (6R,7S)-7-ethoxy-8-oxo-3-(((2-oxo-2H-chromen-7-yl)oxy)methyl)-5-thia-1-azabicyclo[4.2.0]oct-2-ene-2-carboxylic Acid]
Km [1]: 23 µM
kcat [1]: 0.71 ± 0.0 s⁻¹
fluorescence enhancement [3]: almost no fluorescence enhancement
fluorescence enhancement [4]: high fluorescence signals
fluorescence enhancement [5]: high fluorescence signals
fluorescence enhancement [6]: high fluorescence signals
fluorescence enhancement [7]: high fluorescence signals
Km [8]: 39.1 ± 1.3 µM
kcat [8]: 0.3 ± 0.05 s⁻¹
fluorescence enhancement [9]: almost no fluorescence enhancement
Spontaneous hydrolysis rate [10]: 5.9e-07 s⁻¹

Cc1ccc(S(=O)(=O)O[C@H]2C(=O)N3C(C(=O)O)=C(COc4ccc5ccc(=O)oc5c4)CS[C@H]23)cc1 [(s)-CC-6, (6R,7S)-8-oxo-3-(((2-oxo-2H-chromen-7-yl)oxy)methyl)-7-(tosyloxy)-5-thia-1-azabicyclo[4.2.0]oct-2-ene-2-carboxylic Acid]
Km [1]: 14.1 ± 1.2 µM
kcat [1]: 3.9 ± 0.1 s⁻¹
fluorescence enhancement [4]: fluorescence enhancement
amount of enzyme giving detectable fluorescence ([4]; IMP-1): ≤ 1.0 fmol
fluorescence enhancement [5]: fluorescence enhancement
amount of enzyme giving detectable fluorescence [5]: ≤ 1.0 fmol
fluorescence enhancement [6]: fluorescence enhancement
amount of enzyme giving detectable fluorescence ([6]; VIM-27): ≤ 1.0 fmol
amount of enzyme giving detectable fluorescence [7]: 200 fmol
Km [8]: 18.7 ± 7.8 µM
kcat [8]: 0.3 ± 0.05 s⁻¹
Spontaneous hydrolysis rate [10]: 2.6e-07 s⁻¹

IMP-1 (Serratia marcescens)
Km ([12]; other: IMP-1): 3.2 ± 0.07 µM
kcat ([12]; other: IMP-1): 8.0 ± 0.04 s⁻¹
kcat/Km ([12]; other: IMP-1): 2.5 × 10^6 s^−1M^−1
Km ([13]; other: IMP-1): 3.6 ± 0.1 µM
kcat ([13]; other: IMP-1): 4.2 ± 0.03 s⁻¹
kcat/Km ([13]; other: IMP-1): 1.2 × 10^6 s^−1M^−1
Km ([14]; other: IMP-1): 12.9 ± 1.0 µM
kcat ([14]; other: IMP-1): 16.6 ± 0.1 s⁻¹
kcat/Km ([14]; other: IMP-1): 1.3 × 10^6 s^−1M^−1
Km ([15]; other: IMP-1): 9.4 ± 1.3 µM
kcat ([15]; other: IMP-1): 2.1 ± 0.01 s⁻¹
kcat/Km ([15]; other: IMP-1): 2.2 × 10^5 s^−1M^−1
Km ([16]; other: IMP-1): 3.4 ± 0.4 µM
kcat ([16]; other: IMP-1): 2.2 ± 0.02 s⁻¹
kcat/Km ([16]; other: IMP-1): 6.6 × 10^5 s^−1M^−1
Km ([17]; other: IMP-1): 7.8 ± 0.2 µM
kcat ([17]; other: IMP-1): 12.2 ± 0.1 s⁻¹
kcat/Km ([17]; other: IMP-1): 1.6 × 10^6 s^−1M^−1

CC(C)(C)O[C@H]1C(=O)N2C(C(=O)O)=C(COc3ccc4ccc(=O)oc4c3)CS[C@H]12 [(s)-CC-4, (6R,7S)-7-(tert-butoxy)-8-oxo-3-(((2-oxo-2H-chromen-7-yl)oxy)methyl)-5-thia-1-azabicyclo[4.2.0]oct-2-ene-2-carboxylic Acid]
number of bacteria detected / detection limit [19]: about 1×10^5 c.f.u.
Km [1]: 91.6 ± 10.1 µM
kcat [1]: 0.2 ± 0.01 s⁻¹
hydrolysis by non-carbapenemase lactamases [18]: No hydrolysis
fluorescence enhancement [4]: high specificity for IMP-1
amount of enzyme giving detectable fluorescence [5]: about 200 fmol
Km [8]: 121 ± 85 µM
kcat [8]: 0.2 ± 0.1 s⁻¹
Spontaneous hydrolysis rate [10]: 5.4e-07 s⁻¹

CO[C@H]1C(=O)N2C(C(=O)O)=C(COc3ccc4ccc(=O)oc4c3)CS[C@H]12 [(s)-CC-1, (6R,7S)-7-methoxy-8-oxo-3-(((2-oxo-2H-chromen-7-yl)oxy)methyl)-5-thia-1-azabicyclo[4.2.0.]oct-2-ene-2-carboxylic Acid]
number of bacteria detected / detection limit [19]: ≤ 10^4 c.f.u.
Km [1]: 29.2 ± 7 µM
kcat [1]: 1.1 ± 0.1 s⁻¹
fluorescence enhancement [3]: almost no fluorescence enhancement
fluorescence enhancement [4]: high fluorescence signals
fluorescence enhancement [5]: high fluorescence signals
fluorescence enhancement [6]: high fluorescence signals
fluorescence enhancement [7]: high fluorescence signals
Km [8]: 67.7 ± 4.9 µM
kcat [8]: 1.5 ± 0.05 s⁻¹
fluorescence enhancement [9]: almost no fluorescence enhancement
Spontaneous hydrolysis rate [10]: 7e-08 s⁻¹
